In publication PMC7037682, “Herb–Drug Interaction of Red Ginseng Extract and Ginsenoside Rc with Valsartan in Rats” (Molecules, 2020):
Each block holds one compound with its values, some of them ahead of it.

Tests used:
UGT1A3 = test system: UGT1A3; design: method as in PMID 27462006; conditions: cited from earlier work
UGT2B7 = test system: UGT2B7; design: method as in PMID 27462006; conditions: cited from earlier work
[1] = Protein binding in rat liver homogenate by rapid equilibrium dialysis; format: in vitro ADME; conditions: 10% liver homogenate, rat liver homogenate (10%)
Method: The protein binding of Rb1, Rb2, and Rc (1 μM) in rat plasma and liver homogenate was determined using a rapid equilibrium dialysis kit (ThermoFisher Scientific Korea, Seoul, Korea) according to the manufacturer’s instructions. Briefly, 100 μL of rat plasma and 10% liver homogenate samples containing Rb1, Rb2, or Rc (1 μM) were added to the sample chamber of a semipermeable membrane (molecular weight cut-off 8000 Da) and 300 μL of HBSS was added to the outer buffer chamber. Four hours after incubation at 37 °C on a shaking incubator at 300 rpm, aliquots (50 μL) were collected from both the sample and buffer chambers and treated with equal volumes of fresh HBSS and plasma, respectively, to match the sample matrices. The matrix-matched samples (100 μL) were mixed with 300 μL of 80% ice-cold methanol containing berberine 0.05 ng/mL and 0.1% formic acid for 15 min.
Tissue protein binding was calculated using the following equations, and a dilution factor (D as a value of 10) was used since we used 10% liver homognenates. (2) Diluted free drug fraction fu^′= Drug concentration in buffer chamber/Drug concentration in liver homogenate chamber (3) Undiluted free drug fraction fu= 1/D/1/fu^′−1+1/D= 0.1/1/fu^′−1+0.1

OATP1B3 [2] = molecular target: T1, OATP1B3 (Homo sapiens, UniProt Q9NPD5); assay: Inhibition of OATP1B3-mediated valsartan uptake in HEK293-OATP1B3 cells; format: cell-based; design: host or cells: HEK293; conditions: 5 μM valsartan, 5 min
T1 sequence (Q9NPD5 1-702): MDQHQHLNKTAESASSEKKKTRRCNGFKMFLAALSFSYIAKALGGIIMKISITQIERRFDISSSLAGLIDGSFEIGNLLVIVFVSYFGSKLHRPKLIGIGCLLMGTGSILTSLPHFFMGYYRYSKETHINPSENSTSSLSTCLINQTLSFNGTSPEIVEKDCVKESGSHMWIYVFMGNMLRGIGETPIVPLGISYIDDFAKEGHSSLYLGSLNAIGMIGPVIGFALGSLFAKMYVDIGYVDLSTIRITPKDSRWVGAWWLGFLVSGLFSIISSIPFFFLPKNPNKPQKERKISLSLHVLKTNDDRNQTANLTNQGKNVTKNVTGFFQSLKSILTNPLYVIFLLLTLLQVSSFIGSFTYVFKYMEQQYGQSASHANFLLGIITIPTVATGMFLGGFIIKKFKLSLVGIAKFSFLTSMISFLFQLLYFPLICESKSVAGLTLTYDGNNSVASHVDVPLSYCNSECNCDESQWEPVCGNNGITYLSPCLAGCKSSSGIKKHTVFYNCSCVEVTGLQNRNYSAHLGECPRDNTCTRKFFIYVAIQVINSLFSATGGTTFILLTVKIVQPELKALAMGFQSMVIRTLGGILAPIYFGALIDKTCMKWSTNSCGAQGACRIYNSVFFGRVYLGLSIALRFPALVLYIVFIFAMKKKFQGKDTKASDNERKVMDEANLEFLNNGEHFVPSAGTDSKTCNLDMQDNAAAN
Method: Transporter mediated uptake of probe substrates or valsartan was calculated by subtracting the uptake rate of probe substrates or valsartan into HEK293-mock cells from that into HEK293 cells expressing respective transporters.

[3] = Plasma pharmacokinetics of Rc in rats after repeated iv injection; format: in vivo; conditions: rat plasma, Rc 3 mg/kg/day iv for 5 days
Method: The rats were randomly divided into the control and Rc groups. The Rc group was injected with Rc solution (3 mg/mL/kg, dissolved in saline) intravenously via the tail vein for 5 consecutive days. The control group received saline (1 mL/kg) for 5 consecutive days via the tail vein. After 1 h following the last Rc treatment, valsartan was injected intravenously via the femoral vein at 1 mg/kg.

[4] = Plasma and liver distribution of Rc in rats after iv injection; format: in vivo, rat
Method: The rats were injected with Rc solution (3 mg/mL/kg, dissolved in saline) via the tail vein. Blood samples were collected from the abdominal artery, and the liver tissue was immediately excised, gently washed with ice-cold saline, and weighed after the rats were euthanized at 2, 12, and 48 h after intravenous injection of Rc. The blood samples were centrifuged (16,000× g, 10 min, 4 °C) and the liver tissue samples were homogenized with four volumes of saline. Aliquots (50 μL each) of plasma and liver homogenates were stored at −80 °C until the analysis of the ginsenoside Rc.

CYP2C9 = test system: CYP2C9; design: method as in PMID 30078466; conditions: cited from earlier work
OATP1B1 = conditions: cited from earlier work
OATP1B3 [5] = conditions: cited from earlier work

Compound: CC(C)=CCC[C@](C)(O)[C@H]1CC[C@]2(C)[C@@H]1[C@H](O)C[C@@H]1[C@@]3(C)CC[C@H](O[C@@H]4O[C@H](CO)[C@@H](O)[C@H](O)[C@H]4O[C@@H]4O[C@H](CO)[C@@H](O)[C@H](O)[C@H]4O)C(C)(C)[C@@H]3CC[C@]12C [Rg3, ginsenoside Rg3]
- IC50 (UGT1A3): 20.9 µM
- IC50 (UGT2B7): 23.1 µM

Compound: CC(C)=CCC[C@](C)(O)[C@H]1CC[C@]2(C)[C@@H]1[C@H](O)C[C@@H]1[C@@]3(C)CC[C@H](O[C@@H]4O[C@H](CO)[C@@H](O)[C@H](O)[C@H]4O)C(C)(C)[C@@H]3CC[C@]12C [Rh2, ginsenoside Rh2]
- IC50 (UGT1A3): 37.9 µM

Further lines, with some results ahead:

- fraction unbound at 4 h, 1 μM [1]: 0.004
- IC50 (OATP1B3 [2]): 5.1 µM
Compound: CC(C)=CCC[C@](C)(O[C@@H]1O[C@H](CO[C@@H]2OC[C@H](O)[C@H](O)[C@H]2O)[C@@H](O)[C@H](O)[C@H]1O)[C@H]1CC[C@]2(C)[C@@H]1[C@H](O)C[C@@H]1[C@@]3(C)CC[C@H](O[C@@H]4O[C@H](CO)[C@@H](O)[C@H](O)[C@H]4O[C@@H]4O[C@H](CO)[C@@H](O)[C@H](O)[C@H]4O)C(C)(C)[C@@H]3CC[C@]12C [Rb2, ginsenoside Rb2]

- AUC(0-inf) [3]: 1060 ± 325 µM·h
- C0 [3]: 34 ± 5.22 µM
- MRT [3]: 38.5 ± 5.11 h
- half-life [3]: 27.5 ± 4.26 h
- AUC(0-t) ([3]; read-out: AUC24h): 749 ± 185 µM·h
- free Rc concentration in rat liver ([4]; estimated from concentration and protein binding): 0.07 to 0.14 µM
- Kp ([4]; rat, liver (versus plasma), rats, Rc 3 mg/kg iv, 2, 12 and 48 h, read-out: liver-to-plasma concentration ratio): 0.13 to 0.2
- fraction unbound at 4 h, 1 μM [1]: 0.005
- IC50 (OATP1B3 [2]): 1.9 µM
Compound: CC(C)=CCC[C@](C)(O[C@@H]1O[C@H](CO[C@@H]2O[C@@H](CO)[C@H](O)[C@H]2O)[C@@H](O)[C@H](O)[C@H]1O)[C@H]1CC[C@]2(C)[C@@H]1[C@H](O)C[C@@H]1[C@@]3(C)CC[C@H](O[C@@H]4O[C@H](CO)[C@@H](O)[C@H](O)[C@H]4O[C@@H]4O[C@H](CO)[C@@H](O)[C@H](O)[C@H]4O)C(C)(C)[C@@H]3CC[C@]12C [Rc, ginsenoside Rc]

- fraction unbound at 4 h, 1 μM [1]: 0.004
- IC50 (OATP1B3 [2]): 4.1 µM
Compound: CC(C)=CCC[C@](C)(O[C@@H]1O[C@H](CO[C@@H]2O[C@H](CO)[C@@H](O)[C@H](O)[C@H]2O)[C@@H](O)[C@H](O)[C@H]1O)[C@H]1CC[C@]2(C)[C@@H]1[C@H](O)C[C@@H]1[C@@]3(C)CC[C@H](O[C@@H]4O[C@H](CO)[C@@H](O)[C@H](O)[C@H]4O[C@@H]4O[C@H](CO)[C@@H](O)[C@H](O)[C@H]4O)C(C)(C)[C@@H]3CC[C@]12C [Rb1, ginsenoside Rb1]
- IC50 (CYP2C9): 2.4 µM
- IC50 (OATP1B1): 33.2 µM
- IC50 (OATP1B3 [5]): 4.8 µM
